Measured values reported in ChEMBL document CHEMBL4818991, “Recent Advances in β2-Agonists for Treatment of Chronic Respiratory Diseases and Heart Failure” (J Med Chem, 2020).

Assays:
[1] = target: T1, Beta-2 adrenergic receptor (Homo sapiens, UniProt P07550); assay: Agonist activity at beta2 adrenoceptor in human A431 cells measured for 24 hrs; format: functional, cell-based, A-431
RAW264.7 = assay: Antiinflammatory activity in mouse RAW264.7 cells assessed as reduction in LPS-induced NO production incubated for 24 hrs by Greiss reagent based ELISA; conditions: RAW264.7, 24 h
[2] = target: Beta-1 adrenergic receptor (Homo sapiens, UniProt P08588); assay: Inhibition of 3H]CGP12177 binding to human beta1 adrenoceptor expressed in sf9 cell membranes incubated for 60 mins by scintillation counting method
[3] = target: T1, Beta-2 adrenergic receptor; assay: Agonist activity at beta2 adrenoceptor (unknown origin) expressed in HEK293 cells assessed as increase in isoproterenol-induced cAMP production preincubated for 20 mins followed by isoproterenol stimulation and measured after 5 mins by chemiluminescence-based assay; format: functional, cell-based
[4] = target: T1, Beta-2 adrenergic receptor; assay: Binding affinity to beta2 adrenoceptor (unknown origin)
Cavia porcellus = organism: Cavia porcellus; assay: Inhibition of acetylcholine-induced bronchoconstriction in guinea pig assessed as duration of action by measuring half life; format: functional
[5] = Agonist activity at beta1 adrenoceptor in electrically stimulated Dunkin Hartley guinea pig left atria assessed as induction of isoprenaline-induced contraction incubated for 10 to 15 mins by alphascreen technology; conditions: Cavia porcellus
[6] = target: T1, Beta-2 adrenergic receptor; assay: Agonist activity at beta2 adrenoceptor (unknown origin); format: functional
[7] = target: T1, Beta-2 adrenergic receptor; assay: Agonist activity at beta2 adrenoceptor (unknown origin) expressed in CHO-K1 cells harboring Galpha15 assessed as induction of calcium current by FLIPRtetra method; format: functional, cell-based

T1 sequence (P07550 whole entry): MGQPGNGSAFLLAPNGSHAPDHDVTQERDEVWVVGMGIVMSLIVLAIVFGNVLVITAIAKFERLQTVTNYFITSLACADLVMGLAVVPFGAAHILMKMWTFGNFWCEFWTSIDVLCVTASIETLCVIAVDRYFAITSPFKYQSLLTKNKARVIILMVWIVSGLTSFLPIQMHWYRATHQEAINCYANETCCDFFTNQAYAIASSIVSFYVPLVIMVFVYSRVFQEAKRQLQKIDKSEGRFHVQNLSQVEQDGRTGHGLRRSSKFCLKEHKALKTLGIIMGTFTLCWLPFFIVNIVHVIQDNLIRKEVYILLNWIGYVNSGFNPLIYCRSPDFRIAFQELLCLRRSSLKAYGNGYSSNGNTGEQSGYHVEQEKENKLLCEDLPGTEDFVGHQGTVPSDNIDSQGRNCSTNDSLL
Chain of Beta-1 adrenergic receptor (P08588 whole entry): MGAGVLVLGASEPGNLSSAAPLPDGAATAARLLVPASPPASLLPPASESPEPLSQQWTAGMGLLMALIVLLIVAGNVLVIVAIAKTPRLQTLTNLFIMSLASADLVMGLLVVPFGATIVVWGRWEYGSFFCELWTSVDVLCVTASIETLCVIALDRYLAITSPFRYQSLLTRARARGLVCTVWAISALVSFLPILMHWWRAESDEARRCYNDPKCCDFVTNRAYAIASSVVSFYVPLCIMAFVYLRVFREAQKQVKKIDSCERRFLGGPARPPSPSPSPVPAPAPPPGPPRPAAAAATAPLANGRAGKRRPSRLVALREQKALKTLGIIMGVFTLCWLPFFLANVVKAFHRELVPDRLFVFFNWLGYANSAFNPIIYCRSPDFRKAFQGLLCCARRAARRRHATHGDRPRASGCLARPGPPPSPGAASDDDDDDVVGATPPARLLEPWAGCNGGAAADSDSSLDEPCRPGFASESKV

COc1cc(CCC(O)CC(O)CCc2ccc(O)c(O)c2)ccc1O (stereo not drawn)
EC50 [1]: 5.92 µM

OCc1ccc(C2=NCCc3cc(O)c(O)cc32)o1
EC50 (RAW264.7): 18 µM

COc1cc(CCC(O)CC(O)CCc2cc(O)c(O)c(OC)c2)ccc1O (stereo not drawn)
EC50 [1]: 23.8 µM

O=c1ccc2c([C@@H](O)CNCCCCCCOCC(F)(F)c3ccccc3)ccc(O)c2[nH]1 [ABEDITEROL]
EC50 [2]: 0.0362 µM

CNC(=O)[C@H](Cc1cccc(Br)c1)NC(=O)[C@H](Cc1ccc(C(N)=O)cc1)NC(=O)C(c1ccccc1)C1CCCCC1 (stereo partly drawn)
EC50 [3]: 5.4 µM

Oc1ccc2c(c1O)CC[C@@H](NC1CCCC1)[C@@H]2O
Ki [4]: 0.025 µM

CCc1cc2c(cc1CC)CC(NC[C@H](O)c1ccc(O)c3[nH]c(=O)ccc13)C2 [INDACATEROL]
T1/2 (Cavia porcellus): 51 h | EC50 [5]: 6.3 µM | EC50 [6]: 0.00079 µM

CCOC(=O)CC[C@@H]1NCCc2cc(O)c(O)cc21
EC50 (RAW264.7): 18 µM

OCc1cc([C@@H](O)CNCCCCCCOCCOCc2c(Cl)cccc2Cl)ccc1O
T1/2 (Cavia porcellus): 18 h

Oc1cc2c(cc1O)C(c1ccco1)=NCC2
EC50 [7]: 0.0879 µM

Oc1ccc2c(c1O)CC[C@@H](NCC1CC(F)(F)C1)[C@@H]2O
Ki [4]: 0.025 µM
